This note sets out measurements from patent US12233060B2, “Inhibitors of Ataxia-Telangiectasia Mutated and Rad3-related protein kinase (ATR) for use in methods of treating cancer” (THE INSTITUTE OF CANCER RESEARCH: ROYAL CANCER HOSPITAL, priority 2016, dated 2025).

One assay relates to HCT116 cells. As to the kind of experiment: DNA fibre analysis, replication fork speed in HCT116 cells with SS18-SSX1. In kind it is cell-based, human. Particulars: 0.1 μM for two hours. The protocol: FIG. 10. ATR inhibitors elicit replication fork stress in SS tumour cells. […] Error bars represent SEM from triplicate experiments. p values were derived from Student's t tests. B. Western blot illustrating PARP1 cleavage in SYO1 cells exposed to VX970 for 24 hours. C. Western blot illustrating H2AX phosphorylation (γH2AX) in SYO1 cells exposed to VX970 (0.1 μM). D. Confocal microspcopy images illustrating H2AX phosphorylation in SYO1 cells exposed to VX970 (0.1 μM, 24 hours). E. Bar chart depicting data from (D). Error bars represent SEM from 100 images. p values were derived from Student's t tests. F. Replication fork speeds in SYO1 cells exposed to 0.1 μM VX970 for two hours. p value was derived from a Student's t test. G. Replication fork speeds in HCT116 cells exposed to 0.1 μM VX970 for two hours in the presence and absence of ectopic expression of a SS18-SSX1 fusion protein. p values were derived from Student's t tests. Expression of SS18-SSX1 or exposure to VX970 reduced fork speed. Combined SS18-SSX1 expression and VX970 exposure enhanced the reduction in fork speed. H and I. FACS plots from SYO1 cells exposed to VX970.
ATRi induced cytotoxicity in tumour cells derived from carcinomas is often associated with an increase in replication fork stress.

Assay [1] concerns HCT116 ARID1A+/+ and ARID1A−/− cells. Nature of the assay: PARP cleavage western blot. The assay is classed as cell-based, human. Particulars: 24 hours exposure; camptothecin 1 uM positive control. Here is the method: FIG. 3. In vivo ARID1A/ATR synthetic lethality. A. Schematic of VX-970 therapy experiment in mice bearing established HCT116 ARID1A^+/+ and ARID1A^−/− xenografts. Cells were inoculated subcutaneously into nude mice and tumors allowed to establish for 10 days. Mice were then randomized to treatment regimens of either VX-970 (60 mg/kg, 4× weekly by oral gavage) or vehicle. Mice were then treated for a subsequent 40 days. Tumor volume was monitored twice weekly. B. Relative tumor volume plot from (A) showing efficacy of VX-970 and selectivity for ARID1A^−/− xenografts* p=0.024, ANOVA. C. Schematic of tumor incidence experiment in mice with non-established HCT116 ARID1A^+/+ and ARID1A^−/− xenografts. […] Tumor volume was monitored twice weekly and overall tumour incidence was assessed 40 days later. […] PARP-1, cleaved PARP-1 (85 kDa fragment) and tubulin were detected by western blot. […] Caspase3/7 activity was assessed using Caspase-Glo and total cellular viability was estimated using CellTitre-Glo. Luminescence ratios for Caspase-Glo (i.e. apoptotic cells) and CellTitre-Glo (ie viable cells) was determined for each dose and normalized to DMSO treated samples. *Student's t-test, p<0.05. […]
FIG. 5. […] The percentage of cells in G2/M was measured by FACS following PI staining. […] A minimum of 50 anaphases were scored in 3 biological replicate experiments. *p=0.023, Student's t-test. […]
Background: In western blotting, separated proteins are transferred to a membrane and probed.

As to `CNCc1ccc(-c2cc(-c3nc(-c4ccc(S(=O)(=O)C(C)C)cc4)cnc3N)on2)cc1` [VX-970, 5-[4-(Isopropylsulfonyl)phenyl]-3-(3-{4-[(methylamino)methyl]phenyl}-1,2-oxazol-5-yl)-2-pyrazinamine], the “decrease in replication fork speed with SS18-SSX1 expression plus VX970” value in the assay with HCT116 cells was “enhanced by the addition of VX970”. Besides, the “PARP-cleavage, ARID1A−/− vs ARID1A+/+” value in assay [1] is on record as “far higher levels of PARP-cleavage”.
